# Like-named read-outs stand apart in the source and are kept apart here.
# How the values were obtained:
# HK-2 cells = assay: cells; format: cell-based, human; conditions: for IC50: Homo sapiens; for Cell viability: HK-2, 1,000 μM, 24 or 48 h
# Experimental: Cytotoxicity analysis was determined using the Cell Counting kit 8 (CCK8) (Bioss, China). HK-2 was cultured in DMEM/F12 (containing 10% fetal bovine serum, 100 U/ml penicillin, and 100 μg/ml streptomycin; Gibco, Invitrogen) at 37°C in 5% carbon dioxide incubator. The cells were maintained at 80% confluency and the medium was replaced every 3 days for routine cultivation. HK-2 cells (8,000 cells/well) were seeded in 96-well plates overnight. The cells were then treated with analogues of AA for 24 or 48 h at different concentrations (6.8, 27.0, 54.0, 108.0, 216.0, and 432.0 μM for AA I; 12.5, 25.0, 100.0, 200.0, 400.0, and 800.0 μM for AA II; 15.6, 62.5, 125.0, 250.0, 500.0, and 1000.0 μM for AA IIIa; 15.6, 31.3, 62.5, 125.0, 500.0, and 1,000.0 μM for AA IVa; 8.0, 16.0, 32.0, 64.0, 128.0, and 256.0 μM for AL I). Subsequently, the cells were incubated with 10% CCK8 solution for another 2 h. […] The absorbance (OD) of each well was measured with a spectrophotometer (Spark; Tecan, Switzerland) at 450 nm and the IC50 values were obtained by fitting the curve through nonlinear regression with GraphPad Prism 7.0 (GraphPad Software, CA, United States).
# ICR mice = assay: In vivo acute toxicity, single oral gavage dose, 14 days; conditions: for Histopathology of liver tissues: AA I 20 and 40 mg/kg; for Serum AST, ALT, ALP, TBIL, TBA, CREA, BUN vs control group: single oral dose, day 14, AA I at 20 and 40 mg/kg
# Experimental: The animal experiments were approved by the Research Ethics Committee of the Institute of Chinese Materia Medica, China Academy of Chinese Medical Sciences (ICMM, CACMS). The experiment was carried out according to ethical guidelines and regulations for the use of laboratory animals. A total of 160 ICR mice were randomly divided into 16 groups, each comprising 10 mice (5 males and 5 females). The drugs were administered in a single dose by oral gavage and the dose volume was 0.2 ml/10 g. The control group was treated with 0.5% CMC-Na. Other groups received AA I, AA II, AA IIIa, AA IVa, or AL I, at concentrations of 10, 20, and 40 mg/kg, respectively. Animal weights were recorded every two days. The animals were fasted overnight before experiments and sacrificed on day 14. Blood samples were collected and centrifuged for 15 min at 3,500×g. AST, ALT, ALP, CREA, BUN, TBA, and TBIL levels in plasma were examined. SPSS 17.0 (IBM Corp., United States) was used for the statistical and significance analyses. The renal and liver tissues were embedded and stained with H&E. Histological images were obtained through Olympus BX63 (Olympus Corporation, Japan) at a magnification of ×200.
# renal cells of ICR mice = assay: Comet assay (DNA damage), renal cells; format: in vivo; conditions: EMS 577.6 mg/kg; for Kidney Olive Tail Moment / Kidney Tail DNA%: AA analogues 20.0 mg/kg, three consecutive days, 5 animals/group, 100 cells; for DNA damage in renal cells (comet shape): AA analogues 20 mg/kg, three days
# Experimental: (§1) ICR mice were separated into seven groups (n = 5 for each group) and administrated with saline, EMS (577.6 mg/kg), AA I (20 mg/kg), AA II (20 mg/kg), AA IIIa (20 mg/kg), AA IVa (20 mg/kg), or AL I (20 mg/kg) for three consecutive days, respectively. After anesthetization and perfusion, renal and liver tissues were obtained. Comet analysis was performed 2–6 h after the last […] and the processes were according to Günter Speit ([Speit and Rothfuss, 2012]). The Comet Assay software project (CASP) (V1.2.3) was used to analyze the fraction of tail DNA and the Olive Tail Moment. A total of one hundred cells from kidney or liver tissues of each animal were analyzed. The mean, standard deviation (SD) of tail DNA%, and the median of olive tail moment were calculated. Results were analyzed using SPSS 17.0 by one-way analysis of variance (ANOVA) followed by the least significance difference (LSD) test. The significant differences between the groups were tested and defined by p-value < 0.05.
# (§2) Mice (n=35) were randomly divided into seven groups, with 5 mice in each group. Then they were administered with normal saline (NS), ethyl methanesulfonate (EMS) (577.6 mg/kg), and aristolochic acid analogues (20.0 mg/kg) for three days, respectively. After the final administration, mice were perfused and euthanized to obtain the renal and liver tissues.
# (§3) The removed renal and liver tissues were minced into pieces and dispersed with 10 mL DMEM high-sugar culture medium. The mixture was filtered through a 200-mesh sieve and centrifuged at 800 rpm for 5 min. The supernatant was discarded and the cells were resuspended and centrifuged again. Then the cells were cultured in DMEM containing 10% FBS.
# (§4) 25 μL single-cell suspension (5000 cells) with 75 μL of 0.7% low melting point agarose gel were mixed and 100 μL of the mixture was dropped on the bottom layer of agarose gel. The prepared glass slides were stored in the refrigerator at 4℃ for 4 min, and then dipped into the alkaline cell lysates for 2 h at 4℃. Slides were removed and rinsed with PBS buffer for 3 times.
# (§5) The alkaline electrophoresis buffer (pH 13.0) precooled at 4℃ was put into the electrophoresis tank. The tank was covered to avoid light and remained static at 4℃ for 20 min. The voltage was set at 0.8 V/cm, and the current was 300 mA during the electrophoreses.
# (§6) After 20 min, the slides were removed and the excess salt was washed away. The slides were washed by 0.4 mol/L precooled Tris-HCl buffer for 5 min and then dehydrated by ethanol for 15 min. Then the slides were stained with 30 μL PI staining solution (2 μg/mL) in the dark for 15 s, and washed in water several times.
# (§7) A fluorescence microscope was used for visualization of DNA damage. A total of 100 randomly selected cells from kidney or liver tissues were analyzed. Parameters such as tail DNA percentage and Olive Tail Moment were calculated by the Comet Assay Software Project (CASP, V1.2.3).
# [1] = tested on: hepatocyte cells of ICR mice; assay: Comet assay (DNA damage), hepatocyte cells; format: in vivo; conditions: EMS 577.6 mg/kg; for Liver Olive Tail Moment / Liver Tail DNA%: AA analogues 20.0 mg/kg, three consecutive days, 5 animals/group, 100 cells; for DNA damage in hepatocyte cells (comet shape): AA analogues 20 mg/kg, three days
# Experimental: as §1, §2, §3, §4, §5, §6, §7
# [2] = 10, 20 mg/kg single oral dose, 14 days
# [3] = 10, 20, 40 mg/kg single oral dose, male and female mice
# [4] = 10, 20, 40 mg/kg single oral dose, 14 days
Structure (SMILES),Death (ICR mice; [2]),Body weight change vs control group (ICR mice; [3]),Histopathology of liver tissues (ICR mice; H&E),"Serum AST, ALT, ALP, TBIL, TBA, CREA, BUN vs control group (ICR mice)",Kidney Olive Tail Moment (renal cells of ICR mice) [μm],Kidney Tail DNA% (renal cells of ICR mice) [%],DNA damage in renal cells (comet shape) (renal cells of ICR mice),Liver Olive Tail Moment [1] [μm],Liver Tail DNA% [1] [%],DNA damage in hepatocyte cells (comet shape) [1],"IC50 (HK-2 cells; HK-2, 24 h, read-out: IC50) [µM]","IC50 (HK-2 cells; HK-2, 48 h, read-out: IC50) [µM]",Nephrotoxicity or hepatotoxicity (ICR mice; 40 mg/kg),Cell viability (HK-2 cells),Death (ICR mice; [4]),also measured
"COc1cccc2c1cc([N+](=O)[O-])c1c(C(=O)O)cc3c(c12)OCO3 [AA I, aristolochic acid I]",no death,remarkable reduction of body weight,no corresponding pathological changes,"different levels of changes in serum levels of TBIL, ALP, BUN, and CREA",7.45 ± 1.94,15.39 ± 1.75,evident comet shape,0.88±0.14,2.92±0.54,no DNA damage,,,,,,"IC50 (HK-2 cells; HK-2, 24 h): 197 µM; IC50 (HK-2 cells; HK-2, 48 h): 76.7 µM; Survival rate (ICR mice; 40 mg/kg single oral dose, 14 days, n = 10, deaths on days 4, 5 and 6): 30%; Histopathology of renal tissues (ICR mice; 40 mg/kg, H&E): Significant lesions"
"O=C(O)c1cc2c(c3c1c([N+](=O)[O-])cc1ccccc13)OCO2 [AA II, aristolochic acid II]",no death,,,no significant difference,0.78±0.30,3.08±0.25,No DNA damage,0.89±0.22,3.37±0.42,No DNA damage,> 800,306,No distinct nephrotoxicity or hepatotoxicity,,,"Mice died (ICR mice; 40 mg/kg single oral dose, n = 10, death on day 8): 10%; Body weight change (ICR mice; 40 mg/kg, male and female mice, first 10 days): Slight weight loss"
"O=C(O)c1cc2c(c3c1c([N+](=O)[O-])cc1ccc(O)cc13)OCO2 [AA IIIa, aristolochic acid IIIa]",,no distinct changes in body weight,,no significant difference,0.61±0.16,2.60±0.69,No DNA damage,0.92±0.20,3.09±0.47,No DNA damage,,,No distinct nephrotoxicity or hepatotoxicity,≥ 50 % of control,no death,
"COc1cc(O)cc2c1cc([N+](=O)[O-])c1c(C(=O)O)cc3c(c12)OCO3 [AA IVa, aristolochic acid IVa]",,no distinct changes in body weight,,no significant difference,0.57±0.22,2.80±0.99,No DNA damage,0.81±0.14,2.98±0.22,No DNA damage,,,No distinct nephrotoxicity or hepatotoxicity,≥ 50 % of control,no death,"Body weight change (ICR mice; 40 mg/kg, female mice, day 5, returned on day 7): drastic weight loss"
"COc1cccc2c1cc1c3c(cc4c(c32)OCO4)C(=O)N1 [AL I, aristolactam I]",,no distinct changes in body weight,No pathological changes,no significant difference,0.66±0.21,3.12±0.33,No DNA damage,0.74±0.29,3.26±0.52,No DNA damage,> 256,37.1,No distinct nephrotoxicity or hepatotoxicity,,no death,"Serum AST, ALT, ALP activity (ICR mice; 10 mg/kg): decreased AST, ALT, and ALP activity"
"CCOS(C)(=O)=O [EMS, ethyl methanesulfonate, reference compound]",,,,,23.01±4.09,40.97±7.55,significant comet tailing,33.60±6.11,55.18±6.23,significant comet tailing,,,,,,

# Reference: article PMC8662950, “Quantitative Determination and Toxicity Evaluation of Aristolochic Acid Analogues in Asarum heterotropoides F. Schmidt (Xixin) and Traditional Chinese Patent Medicines” (Frontiers in Pharmacology, 2021)
